From ChEMBL document CHEMBL1833839, “Discovery of potent and novel S-nitrosoglutathione reductase inhibitors devoid of cytochrome P450 activities” (Bioorg Med Chem Lett, 2011)
Calls of active or inactive are those of the source. The calls are words filed in the database; no cut-off is given here.

Tests used:
[1] = Inhibition of S-nitrosoglutathione reductase expressed in Escherichia coli after 3 mins by UV/Vis spectrophotometry
[2] = target: T1, CYP1A2 (Homo sapiens, UniProt P05177); assay: Inhibition of CYP1A2 at 10 uM; type: ADME
T1 sequence (P05177 whole entry): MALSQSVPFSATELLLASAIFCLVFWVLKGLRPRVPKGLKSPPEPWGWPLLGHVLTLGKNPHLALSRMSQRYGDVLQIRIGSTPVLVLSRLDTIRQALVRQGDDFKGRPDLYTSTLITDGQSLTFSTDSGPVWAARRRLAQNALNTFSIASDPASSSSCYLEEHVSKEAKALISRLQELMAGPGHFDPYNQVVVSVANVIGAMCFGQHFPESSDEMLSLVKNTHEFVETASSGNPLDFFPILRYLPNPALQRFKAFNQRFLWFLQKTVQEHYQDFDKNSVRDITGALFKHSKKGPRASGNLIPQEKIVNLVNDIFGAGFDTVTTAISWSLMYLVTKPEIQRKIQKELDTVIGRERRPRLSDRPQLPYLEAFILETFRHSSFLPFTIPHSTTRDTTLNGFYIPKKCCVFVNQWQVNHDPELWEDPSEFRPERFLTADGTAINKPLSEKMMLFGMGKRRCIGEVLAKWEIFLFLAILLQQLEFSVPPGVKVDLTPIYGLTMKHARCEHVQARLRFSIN

[3] = target: CYP2C9 (Homo sapiens, UniProt P11712); assay: Inhibition of CYP2C9 at 10 uM; type: ADME
[4] = target: CYP2C19 (Homo sapiens, UniProt P33261); assay: Inhibition of CYP2C19 at 10 uM; type: ADME
[5] = target: CYP2D6 (Homo sapiens, UniProt P10635); assay: Inhibition of CYP2D6 at 10 uM; type: ADME
[6] = target: CYP3A4 (Homo sapiens, UniProt P08684); assay: Inhibition of CYP3A4 at 10 uM; type: ADME
[7] = target: Cytochrome P450 2C19 (Homo sapiens, UniProt P33261); assay: Inhibition of CYP2C19; type: ADME
[8] = species: Homo sapiens; assay: Binding affinity to human recombinant delta2 opiate receptor by radioligand displacement assay
[9] = target: Mu-type opioid receptor (Homo sapiens) (UniProt P35372); assay: Binding affinity to human recombinant mu opioid receptor at 10 uM by radioligand displacement assay
Mu-type opioid receptor (Homo sapiens), sequence (P35372 whole entry): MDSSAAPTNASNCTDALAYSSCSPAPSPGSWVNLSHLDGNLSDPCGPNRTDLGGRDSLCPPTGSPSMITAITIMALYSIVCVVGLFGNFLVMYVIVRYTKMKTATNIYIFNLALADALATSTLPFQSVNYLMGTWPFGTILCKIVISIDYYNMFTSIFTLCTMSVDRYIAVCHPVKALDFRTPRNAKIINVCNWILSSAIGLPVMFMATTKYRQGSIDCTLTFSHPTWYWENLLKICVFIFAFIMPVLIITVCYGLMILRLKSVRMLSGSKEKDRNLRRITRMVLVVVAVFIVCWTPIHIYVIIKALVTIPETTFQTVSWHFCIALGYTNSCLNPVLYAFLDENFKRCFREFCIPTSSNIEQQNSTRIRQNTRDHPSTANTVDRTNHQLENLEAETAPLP

CYP3A4, sequence (P08684 whole entry): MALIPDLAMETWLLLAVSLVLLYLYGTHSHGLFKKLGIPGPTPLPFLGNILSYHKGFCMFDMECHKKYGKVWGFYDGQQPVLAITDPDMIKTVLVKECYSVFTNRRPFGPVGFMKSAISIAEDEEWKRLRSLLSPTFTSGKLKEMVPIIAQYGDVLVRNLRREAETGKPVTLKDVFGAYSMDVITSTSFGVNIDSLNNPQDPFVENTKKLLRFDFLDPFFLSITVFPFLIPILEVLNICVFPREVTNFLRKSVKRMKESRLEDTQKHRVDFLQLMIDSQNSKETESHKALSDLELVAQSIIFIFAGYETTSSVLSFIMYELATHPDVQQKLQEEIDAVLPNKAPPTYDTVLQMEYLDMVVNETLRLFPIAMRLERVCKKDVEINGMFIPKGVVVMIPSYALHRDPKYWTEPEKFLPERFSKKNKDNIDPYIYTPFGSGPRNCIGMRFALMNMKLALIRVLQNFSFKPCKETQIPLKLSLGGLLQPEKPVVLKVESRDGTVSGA
CYP2D6, sequence (P10635 whole entry): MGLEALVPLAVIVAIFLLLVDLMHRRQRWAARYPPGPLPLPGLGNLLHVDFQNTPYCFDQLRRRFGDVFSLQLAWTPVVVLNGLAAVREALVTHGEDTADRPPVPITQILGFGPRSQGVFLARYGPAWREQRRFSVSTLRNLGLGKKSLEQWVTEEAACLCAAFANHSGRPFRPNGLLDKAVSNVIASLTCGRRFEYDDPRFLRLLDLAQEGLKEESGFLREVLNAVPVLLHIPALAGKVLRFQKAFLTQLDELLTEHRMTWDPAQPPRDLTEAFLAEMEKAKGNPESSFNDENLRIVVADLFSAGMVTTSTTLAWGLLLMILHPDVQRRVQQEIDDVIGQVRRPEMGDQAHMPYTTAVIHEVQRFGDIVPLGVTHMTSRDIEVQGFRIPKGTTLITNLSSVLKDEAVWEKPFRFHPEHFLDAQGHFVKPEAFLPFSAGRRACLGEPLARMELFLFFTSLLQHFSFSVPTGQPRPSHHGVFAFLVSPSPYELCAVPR
CYP2C9, sequence (P11712 whole entry): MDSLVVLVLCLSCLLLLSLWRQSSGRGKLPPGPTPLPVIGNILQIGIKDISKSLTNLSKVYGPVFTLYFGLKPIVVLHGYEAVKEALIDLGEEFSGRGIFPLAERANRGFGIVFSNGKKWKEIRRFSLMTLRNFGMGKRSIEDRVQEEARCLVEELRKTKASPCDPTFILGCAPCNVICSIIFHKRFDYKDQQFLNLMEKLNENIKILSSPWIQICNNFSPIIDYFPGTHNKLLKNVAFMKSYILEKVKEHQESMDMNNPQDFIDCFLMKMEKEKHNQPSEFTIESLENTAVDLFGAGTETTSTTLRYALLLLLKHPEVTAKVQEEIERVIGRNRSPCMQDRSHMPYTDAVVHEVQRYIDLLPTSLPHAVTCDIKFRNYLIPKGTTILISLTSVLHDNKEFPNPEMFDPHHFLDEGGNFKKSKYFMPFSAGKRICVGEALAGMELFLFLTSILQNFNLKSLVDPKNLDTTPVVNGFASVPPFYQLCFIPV
CYP2C19, sequence (P33261 whole entry): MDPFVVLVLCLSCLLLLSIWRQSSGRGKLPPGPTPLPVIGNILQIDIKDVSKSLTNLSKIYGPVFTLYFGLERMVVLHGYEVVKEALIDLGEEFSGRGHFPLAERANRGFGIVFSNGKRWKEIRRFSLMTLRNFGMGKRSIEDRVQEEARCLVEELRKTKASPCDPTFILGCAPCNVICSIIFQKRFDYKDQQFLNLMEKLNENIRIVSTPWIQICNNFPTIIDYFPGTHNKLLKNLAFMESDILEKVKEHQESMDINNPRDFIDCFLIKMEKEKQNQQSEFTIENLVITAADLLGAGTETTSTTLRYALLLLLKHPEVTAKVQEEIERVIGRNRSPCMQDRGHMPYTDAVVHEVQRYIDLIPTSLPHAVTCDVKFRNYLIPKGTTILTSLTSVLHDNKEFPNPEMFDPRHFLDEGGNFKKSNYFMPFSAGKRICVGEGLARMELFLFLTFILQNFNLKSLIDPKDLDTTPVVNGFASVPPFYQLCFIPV
Cytochrome P450 2C19, sequence (P33261 whole entry): as above

| Structure (SMILES) | IC50 ([1]; read-out: IC50) [µM] | further results |
| --- | --- | --- |
| Cc1cc(C(N)=O)ccc1-n1c(CCC(=O)O)ccc1-c1ccc(-c2ccsc2)cc1 | 29.3 |  |
| Cc1cc(C(N)=O)ccc1-n1c(CCC(=O)O)ccc1-c1ccc(-n2ccnc2C)cc1 | 0.075 | inhibition at 10 µM [2]: 11%; inhibition at 10 µM [3]: 20%; inhibition at 10 µM [4]: 55%; inhibition at 10 µM [5]: 11%; inhibition at 10 µM [6]: 31% |
| Cc1cc(C(N)=O)ccc1-n1c(CCC(=O)O)ccc1-c1ccc(-n2ccnc2C)s1 |  | inhibition at 10 µM [2]: -8%; inhibition at 10 µM [3]: 15%; inhibition at 10 µM [4]: 25%; inhibition at 10 µM [5]: 10%; inhibition at 10 µM [6]: 27% |
| Cc1cc(C(N)=O)ccc1-n1c(CCC(=O)O)ccc1-c1ccc(-n2ccnc2)o1 | 0.9 |  |
| Cc1cc(C(N)=O)ccc1-n1c(CCC(=O)O)ccc1-c1ccc(N2CCCC2)cc1 | 11.8 |  |
| Cc1cc(C(N)=O)ccc1-n1c(CCC(=O)O)ccc1-c1ccc(-n2ccnn2)cc1 | 13.3 |  |
| Cc1cc(C(N)=O)ccc1-n1c(CCC(=O)O)ccc1-c1ccc(N2CCOCC2)cc1 | 8.17 |  |
| Cc1cc(C(N)=O)ccc1-n1c(CCC(=O)O)ccc1-c1ccc(-c2ccco2)cc1 | 6.52 |  |
| Cc1cc(C(N)=O)ccc1-n1c(CCC(=O)O)ccc1-c1ccc(N2CCOC2=O)cc1 | 53.5 |  |
| Cc1cc(C(N)=O)ccc1-n1c(CCC(=O)O)ccc1-c1ccc(-n2ccnc2C(F)(F)F)cc1 |  | IC50 [1]: Not Active |
| Cc1cc(C(N)=O)ccc1-n1c(CCC(=O)O)ccc1-c1ccc(-c2nnn[nH]2)cc1 | 1.75 |  |
| Cc1cc(C(N)=O)ccc1-n1c(CCC(=O)O)ccc1-c1ccc(-c2ccnn2C)cc1 | 0.68 |  |
| Cc1cc(C(N)=O)ccc1-n1c(CCC(=O)O)ccc1-c1cc(-n2ccnc2C)cs1 |  | inhibition at 10 µM [2]: -11%; inhibition at 10 µM [3]: 13%; inhibition at 10 µM [4]: 11%; inhibition at 10 µM [5]: 12%; inhibition at 10 µM [6]: 18%; inhibition [9]: 69% |
| Cc1cc(C(N)=O)ccc1-n1c(CCC(=O)O)ccc1-c1ccc(N2CCNCC2)cc1 | 43.9 |  |
| Cc1cc(C(N)=O)ccc1-n1c(CCC(=O)O)ccc1-c1ccc(-n2cnnc2)cc1 | 1.48 |  |
| Cc1cn(-c2ccc(-c3ccc(CCC(=O)O)n3-c3ccc(C(N)=O)cc3C)cc2)cn1 | 6.25 |  |
| Cc1cc(C(N)=O)ccc1-n1c(CCC(=O)O)ccc1-c1ccc(-n2ccnc2)s1 |  | inhibition at 10 µM [2]: 77%; inhibition at 10 µM [3]: 92%; inhibition at 10 µM [4]: 83%; inhibition at 10 µM [5]: 96%; inhibition at 10 µM [6]: 91% |
| Cc1cc(C(N)=O)ccc1-n1c(CCC(=O)O)ccc1-c1ccc(-c2cnn(C)c2)cc1 | 5.14 |  |
| Cc1cc(C(N)=O)ccc1-n1c(CCC(=O)O)ccc1-c1ccc(-n2ccnc2CO)cc1 | 2.31 |  |
| Cc1cc(C(N)=O)ccc1-n1c(CCC(=O)O)ccc1-c1ccc(-n2ccnc2)nc1 | 2.3 |  |
| Cc1cc(C(N)=O)ccc1-n1c(CCC(=O)O)ccc1-c1ccc(-n2cnnn2)cc1 | 5.19 |  |
| Cc1cc(C(N)=O)ccc1-n1c(CCC(=O)O)ccc1-c1ccc(-c2ccoc2)cc1 | 0.51 |  |
| Cc1cc(C(N)=O)ccc1-n1c(CCC(=O)O)ccc1-c1ccc(-n2ccnc2C(C)C)cc1 |  | IC50 [1]: Not Active |
| Cc1cc(C(N)=O)ccc1-n1c(CCC(=O)O)ccc1-c1ccc(-n2ccnc2)cn1 | 0.36 |  |

Second part, led by results:

| IC50 ([1]; read-out: IC50) [µM] | Structure (SMILES) | further results |
| --- | --- | --- |
| 0.76 | Cc1cc(C(N)=O)ccc1-n1c(CCC(=O)O)ccc1-c1ccc(-c2cncs2)cc1 |  |
| 6.96 | Cc1cc(C(N)=O)ccc1-n1c(CCC(=O)O)ccc1-c1ccc(-n2ccnc2C2CC2)cc1 |  |
| 6.16 | Cc1cc(C(N)=O)ccc1-n1c(CCC(=O)O)ccc1-c1ccc(-c2ccccc2)cc1 |  |
| 9.8 | Cc1cc(C(N)=O)ccc1-n1c(CCC(=O)O)ccc1-c1ccc(-c2ccncc2)cc1 |  |
| 19 | Cc1cc(C(N)=O)ccc1-n1c(CCC(=O)O)ccc1-c1ccc(-c2ccc(=O)[nH]c2)cc1 |  |
| 23.9 | Cc1cc(C(N)=O)ccc1-n1c(CCC(=O)O)ccc1-c1ccc(-c2cccnc2)cc1 |  |
| 0.048 | CCc1nccn1-c1ccc(-c2ccc(CCC(=O)O)n2-c2ccc(C(N)=O)cc2C)s1 |  |
| 0.02 | Cc1cc(C(N)=O)ccc1-n1c(CCC(=O)O)ccc1-c1ccc(-n2ccnc2)cc1 [N6022] | IC50 [7]: 0.77 µM; Activity [8]: inactive |
| 50.6 | Cc1cc(C(N)=O)ccc1-n1c(CCC(=O)O)ccc1-c1ccc(N2CCNC2=O)cc1 |  |
| 0.13 | CCc1nccn1-c1ccc(-c2ccc(CCC(=O)O)n2-c2ccc(C(N)=O)cc2C)cc1 | inhibition at 10 µM [2]: 6%; inhibition at 10 µM [3]: 15%; inhibition at 10 µM [4]: 25%; inhibition at 10 µM [5]: 20%; inhibition at 10 µM [6]: 27% |
| 10.2 | Cc1cc(C(N)=O)ccc1-n1c(CCC(=O)O)ccc1-c1ccc(-n2cccc2)cc1 |  |
| 1.57 | Cc1cc(C(N)=O)ccc1-n1c(CCC(=O)O)ccc1-c1cnc(-n2ccnc2)s1 |  |
| 4.74 | Cc1cc(C(N)=O)ccc1-n1c(CCC(=O)O)ccc1-c1ccc(-n2cccn2)cc1 |  |
| 0.026 | Cc1cc(C(N)=O)ccc1-n1c(CCC(=O)O)ccc1-c1cc(-n2ccnc2)cs1 |  |
| 0.048 | Cc1cc(C(N)=O)ccc1-n1c(CCC(=O)O)ccc1-c1csc(-n2ccnc2C)c1 |  |
| 8.78 | Cc1cc(C(N)=O)ccc1-n1c(CCC(=O)O)ccc1-c1ccc(N2CCCCC2)cc1 |  |
| 0.15 | Cc1cc(C(N)=O)ccc1-n1c(CCC(=O)O)ccc1-c1cnc(-n2ccnc2)nc1 |  |
| 2.66 | Cc1cc(C(N)=O)ccc1-n1c(CCC(=O)O)ccc1-c1ccc(-c2cn[nH]c2)cc1 |  |
